Assay results published in PubChem BioAssay (NCI).
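All cell lines were grown in 96-well plates and treated with compound for 48 hours. The concentration for 50% growth inhibition is given as GI50. The concentration for full growth arrest is given as TGI.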

Columns and labels:
Experiment in all cases: NCI anticancer screen, dose series, 48 h; in the data active = GI50 below about 0.43 µM; inactive = the rest
M14 melanoma = system: M14 melanoma
HCT-15 colon = system: HCT-15 colon
SNB-19 CNS = system: SNB-19 CNS
SK-MEL-5 melanoma = system: SK-MEL-5 melanoma
HT29 colon = system: HT29 colon
SK-MEL-2 melanoma = system: SK-MEL-2 melanoma
HL-60(TB) leukemia = system: HL-60(TB) leukemia
RPMI-8226 leukemia = system: RPMI-8226 leukemia
SF-295 CNS = system: SF-295 CNS
T-47D breast = system: T-47D breast
RXF 393 renal = system: RXF 393 renal
SK-MEL-28 melanoma = system: SK-MEL-28 melanoma
HCC-2998 colon = system: HCC-2998 colon
PC-3 prostate = system: PC-3 prostate
MALME-3M melanoma = system: MALME-3M melanoma
BT-549 breast = system: BT-549 breast
SF-539 CNS = system: SF-539 CNS
UO-31 renal = system: UO-31 renal
DU-145 prostate = system: DU-145 prostate
CCRF-CEM leukemia = system: CCRF-CEM leukemia
NCI-H23 lung = system: NCI-H23 lung
786-0 renal = system: 786-0 renal
SF-268 CNS = system: SF-268 CNS
OVCAR-8 ovarian = system: OVCAR-8 ovarian
LOX IMVI melanoma = system: LOX IMVI melanoma
HS 578T breast = system: HS 578T breast
ACHN renal = system: ACHN renal
NCI-H226 lung = system: NCI-H226 lung

O=C1OCc2c1cc(F)cc2[N+](=O)[O-]
inactive: GI50 (HCT-15 colon) > 100 µM | GI50 (SNB-19 CNS) > 100 µM | GI50 (SK-MEL-5 melanoma) > 100 µM | GI50 (HT29 colon) > 100 µM | GI50 (SK-MEL-2 melanoma) > 100 µM | GI50 (HL-60(TB) leukemia) > 100 µM | GI50 (RPMI-8226 leukemia) > 100 µM | GI50 (SF-295 CNS) > 100 µM | GI50 (T-47D breast) > 100 µM | GI50 (RXF 393 renal) > 100 µM | GI50 (SK-MEL-28 melanoma) > 100 µM | GI50 (HCC-2998 colon) > 100 µM | GI50 (PC-3 prostate) > 100 µM | GI50 (MALME-3M melanoma) 26.8 µM | GI50 (BT-549 breast) > 100 µM | GI50 (SF-539 CNS) > 100 µM | GI50 (UO-31 renal) > 100 µM | GI50 (DU-145 prostate) > 100 µM | GI50 (CCRF-CEM leukemia) > 100 µM | GI50 (NCI-H23 lung) > 100 µM | GI50 (786-0 renal) > 100 µM | GI50 (SF-268 CNS) > 100 µM | GI50 (OVCAR-8 ovarian) > 100 µM | GI50 (LOX IMVI melanoma) > 100 µM | GI50 (HS 578T breast) > 100 µM | GI50 (ACHN renal) > 100 µM | GI50 (NCI-H226 lung) > 100 µM
> 100 µM: TGI (M14 melanoma) | TGI (HCT-15 colon) | TGI (SNB-19 CNS) | TGI (SK-MEL-5 melanoma) | TGI (HT29 colon) | TGI (SK-MEL-2 melanoma) | TGI (HL-60(TB) leukemia) | TGI (RPMI-8226 leukemia) | TGI (SF-295 CNS) | TGI (T-47D breast) | TGI (RXF 393 renal) | TGI (SK-MEL-28 melanoma) | TGI (HCC-2998 colon) | TGI (PC-3 prostate) | TGI (BT-549 breast) | TGI (SF-539 CNS) | TGI (UO-31 renal) | TGI (DU-145 prostate) | TGI (CCRF-CEM leukemia) | TGI (NCI-H23 lung) | TGI (786-0 renal) | TGI (SF-268 CNS) | TGI (OVCAR-8 ovarian) | TGI (LOX IMVI melanoma) | TGI (HS 578T breast) | TGI (ACHN renal) | TGI (NCI-H226 lung)
69.6 µM: TGI (MALME-3M melanoma)
